The values below come from patent US20060008864A1, “Methods to measure compound specificity” (priority 2004, published 2006).

Counter-ions that a name gives are not always drawn. Like-named read-outs stand apart in the source and are kept apart here.

Test [1] concerns HeLa CCT (cancer cell tubulin). The test can be described thus: Fluorescence (DAPI) tubulin polymerization microassay, HeLa cancer cell tubulin. The class given is biochemical. As to conditions: for Tubulin Ligand Index (TLI) ratio, HeLa: BBT EC50 divided by HeLa CCT EC50; for EC50: 2 mg/ml tubulin, enhancer format without glycerol, 50% of 20% glycerol control Vmax, read-out: EC50 using HeLa CCT. The source says: (§1) A plot of log10 of concentration (X-axis) and Percent Vmax (control) (Y-axis) is made for each compound.

The subject of test [2] is MCF-7 CCT (cancer cell tubulin). Briefly: Fluorescence (DAPI) tubulin polymerization microassay, MCF-7 cancer cell tubulin. To be noted: BBT EC50 divided by MCF-7 CCT EC50.
Description: Compounds were assayed in the standard glycerol containing (vinblastine and colchicine) or no glycerol containing (paclitaxel) formats. […] Twenty four micrograms of CCT in G-PEM with 10 uM DAPI plus glycerol (colchicine and vinblastine) or minus glycerol (paclitaxel) at 4° C. was pipetted into wells of the 384-well plate which contained 1.3 ul of 10× strength compound concentration and incubated at 37° C. Tubulin polymerization was detected by measuring the fluorescence of the solution (Ex 360 nm, Em 405 nm) over time. Each set of data, A through I, represents six duplicate polymerization assays from one experiment, the duplicates contain either a 20% glycerol control or one of five compound concentrations (0.1, 0.3, 1.0, 3.0 or 10 uM). Paclitaxel experiments were repeated n=3 for neuronal, n=5 for HeLa and n=2 for MCF-7. Vinblastine experiments were repeated n=2 for neuronal, n=5 for HeLa and n=2 for MCF-7. Colchicine experiments were repeated n=2 for neuronal, HeLa and MCF-7. […]
Using the conditions described in FIG. 9, we measured eleven taxol analogs against BBT and MCF-7 CCT. TLI's were calculated by the method described in FIG. 11. […]
A fluorescent plate reader is tuned to 360 nm excitation wavelength and 405 to 475 nm emission wavelength, a 384 well plate was placed into the machine and it was pre-warmed to 37° C.
Test [3] concerns the target Bovine brain tubulin (mainly isotypes βII and βIII). As to conditions: cited from earlier work.
Test [4] concerns Bovine brain tubulin (BBT, neuronal tubulin). The test can be described thus: Fluorescence (DAPI) tubulin polymerization microassay, bovine brain tubulin. The class given is biochemical. To be noted: 2 mg/ml tubulin, enhancer format without glycerol; 50% of 20% glycerol control Vmax; read-out: EC50 using neuronal tubulin.
From the text: as §1

For test [5], the system named is HeLa CCT (cancer cell tubulin). As to conditions: BBT IC50 divided by HeLa CCT IC50; IC50 estimated from 50% intercept of dose response curve; cited from earlier work.

Take `CC(=O)O[C@@]12CO[C@@H]1C[C@H](O)[C@@]1(C)C(=O)[C@H](O)C3=C(C)[C@@H](O)C[C@@](O)([C@@H](OC(=O)c4ccccc4)[C@H]21)C3(C)C` [10-Deacetyl-baccatin-III]: the “Tubulin Ligand Index (TLI) ratio, HeLa” value in test [1] is below 0.01. The “Tubulin Ligand Index (TLI) ratio, MCF-7” value in test [2] is 0.28.

For orientation: Kd means the equilibrium constant for the complex coming apart. Regarding `N=C(N)c1ccc(-c2cc3ccc(C(=N)N)cc3[nH]2)cc1` [DAPI, 4′, 6-diamidino-2-phenylindole-HCl], the dissociation constant (Kd) in test [3] (bovine brain tubulin in the monomer form, read-out: Kd (affinity constant) for DAPI, monomer form) is 43000 nM; in test [3] (bovine brain tubulin in the polymer form, read-out: Kd (affinity constant) for DAPI, polymer form) it was 6000 nM.

A word on the EC50: it is the concentration that produces a half-maximal response. In the case of `CC(=O)O[C@@]12CO[C@@H]1C[C@H](O)[C@@]1(C)C(=O)[C@H](O)C3=C(C)[C@@H](OC(=O)[C@H](O)[C@@H](NC(=O)OC(C)(C)C)c4ccccc4)C[C@@](O)([C@@H](OC(=O)c4ccccc4)[C@H]21)C3(C)C` [docetaxel], in test [4], the EC50 was determined as 140 nM. Besides, in test [1], the concentration giving a half-maximal response (EC50) amounted to 150 nM and the “Tubulin Ligand Index (TLI) ratio, HeLa” value came out at 0.93.

As for `CC(=O)O[C@H]1C(=O)[C@@]2(C)[C@H]([C@H](OC(=O)c3ccccc3)[C@]3(O)C[C@H](OC(=O)[C@H](O)[C@@H](NC(=O)c4ccccc4)c4ccccc4)C(C)=C1C3(C)C)[C@]1(OC(C)=O)CO[C@@H]1C[C@@H]2O` [paclitaxel], the figures for the EC50 in test [4] and in test [1] were 150 nM and 790 nM, respectively.

Take `CC[C@]1(O)C[C@@H]2CN(CCc3c([nH]c4ccccc34)[C@@](C(=O)OC)(c3cc4c(cc3OC)N(C)[C@H]3[C@@](O)(C(=O)OC)[C@H](OC(C)=O)[C@]5(CC)C=CCN6CC[C@]43[C@@H]65)C2)C1` [vinblastine]: the “Tubulin Ligand Index (TLI), BBT vs HeLa CCT, measured by Zentaris GmbH” value in test [5] is 1.0.

Disorazol E1: the “Tubulin Ligand Index (TLI), BBT vs HeLa CCT, measured by Zentaris GmbH” value in test [5] is 2.0.
